Paper PMC8743659, “C1632 suppresses the migration and proliferation of non‐small‐cell lung cancer cells involving LIN28 and FGFR1 pathway” (Journal of Cellular and Molecular Medicine, 2021)

How the values were obtained:
Type in all cases: cell-based, human
LIN28 = assay: qPCR of LIN28 mRNA in NSCLC cells; settings: A549 and A549R cells, 15, 30 and 60 mg/L, 5 days; especially in A549R
Method: Total RNA was extracted using RNAiso Plus (Takara) according to the manufacturer's instructions. cDNA was synthesized using PrimeScript II first‐strand cDNA Synthesis Kit (Takara), followed by amplification with RealStar Power SYBR Mixture (GenStar). miRNAs were quantified using the stem‐loop method, and U6 snRNA was adopted as internal control. Specific primer sequences were designed as previously reported.[40] qPCR was carried out with a LightCycler 480 Real‐Time PCR system (Roche). Data were analysed using the comparative Ct (2−ΔΔCt) method.[41] All experiments were performed in three independent experiments. qPCR primers for mRNA detection were as follows: GAPDH‐forward 5′‐[…]‐3′; GAPDH‐reverse 5′‐[…]‐3′; LIN28A‐forward 5′‐[…]‐3′; LIN28A‐reverse 5′‐GCGGTCATGGACA GGAAGCC‐3′; LIN28B‐forward 5′‐[…]‐3′; LIN28B‐reverse 5′‐[…]‐3′.

[1] = test system: matrix metalloproteinase-9 (MMP-9); assay: Western blot of MMP-9; settings: A549 and A549R cells, 5 days
Method: The total cell protein was extracted and denaturized at 95°C for 10 min. Samples were separated in SDS‐PAGE gel, then transferred to a PVDF membrane. Then this membrane was blocked with 5% non‐fat milk (solved in TBST) for 2.5 h at room temperature. Blots were probed with relevant primary antibodies against FGFR1 (CST), p‐FGFR1 (CST), MAPK (CST), p‐MAPK (CST), FAK (CST), p‐FAK (CST), MMP‐9 (CST), LIN28B (CST), GAPDH (CST), and β‐actin (proteintech) overnight at 4°C, respectively. Then the lanes were detected with HRP‐conjugated secondary antibodies and visualized using WESTAR SUPERNOVA kit (CYANAGEN).

A549 cells [2] = assay: Colony formation assay; settings: A549, 15, 30 and 60 mg/L, dose-dependent
Method: (§1) First, cells were treated with indicated concentrations of C1632 or 0.01% DMSO for 5 days. Then these cells were separated into single cells that were directly used for cloning. During the process of cloning, C1632‐treated A549 or A549R cells were still maintained in DMEM plus 10% FBS medium containing the indicated concentration of C1632 (15, 30, and 60 mg/L), while the control group was cultured with 0.01% DMSO. Both culture media were changed for every 2 days until 10 days. The number of forming colonies in C1632 or 0.01% DMSO‐treated groups was counted and the images were taken.

A549R cells [3] = assay: Colony formation assay; settings: A549R, 15, 30 and 60 mg/L, dose-dependent; stronger than in A549
Method: as §1

A549 cells [4] = assay: Edu staining assay; settings: A549, 15, 30 or 60 mg/L, 5 days, dose-dependent
Method: (§2) Edu staining assay was carried out according to Edu staining Kit (Beyotime). First, A549 or A549R cells were seeded in 6‐well plates and cultured in RPMI medium 1640 containing 10% FBS, then treated with C1632 (15, 30, or 60 mg/L) for 5 days. Subsequently, cells were incubated with Edu for 3 h, fixed with 4% paraformaldehyde for 15 min, and permeated with 0.3% Triton X‐100 for another 15 min. Then cells were incubated with the Click Reaction Mixture provided by Edu staining Kit for 30 min at room temperature in dark and then stained with DAPI. Finally, the stained cells were scanned and imaged under Nikon Ti microscope.

A549R cells [5] = assay: Edu staining assay; settings: A549R, 15, 30 or 60 mg/L, 5 days, dose-dependent
Method: as §2

CC(=O)N(C)c1cccc(-c2ccc3nnc(C)n3n2)c1 [C1632]
LIN28 mRNA levels (LIN28): decreased | expression of MMP-9 [1]: efficiently decreased | formation of colony units (A549 cells [2]): inhibited | formation of colony units (A549R cells [3]): inhibited | DNA replication (A549 cells [4]): significant inhibition | DNA replication (A549R cells [5]): significant inhibition
